# In PMC10235986, “Probing differences among Aβ oligomers with two triangular trimers derived from Aβ” (Proceedings of the National Academy of Sciences of the …, 2023):
# Tests used:
# [1] = tested on: SH-SY5Y cells; experiment: Toxicity of Aβ42 alone (LDH release, ATP levels, caspase-3/7 activation, cell viability); type: cell-based, human
# Excerpt: To investigate the effect of 2AT and KLT on Aβ42 toxicity, we performed a series of cell-based toxicity experiments in which we examined four toxicity markers—LDH release, changes in ATP levels, caspase-3/7 activation, and cell viability—in SH-SY5Y cells exposed to Aβ42 in the absence or presence of 2AT and KLT. We first identified an Aβ42 concentration that elicits significant toxicity in the absence of 2AT and KLT by exposing SH-SY5Y cells to varying concentrations of Aβ42 and then performing the toxicity assays. The toxicity markers establish that Aβ42 elicits significant toxicity at 6 μM (SI Appendix, Fig. S8). […]
# Detailed methods are provided in the Supporting Information. […] X-ray diffraction data for KLT and KLTI were collected on a Rigaku Micromax-007HF X-ray diffractometer with a rotating copper anode, and the X-ray crystallographic phases were determined using molecular replacement and SAD phasing. […] Live-cell fluorescence microscopy was performed on SH-SY5Y cells adhered to an Ibidi µ-Slide eight Well Chamber Slide. The cells were imaged using a Keyence BZ-X810 fluorescence microscope and analyzed using the Hybrid Cell Count application in the BZ-X810 Analyzer software. […]
# [2] = tested on: SH-SY5Y cells; experiment: Live-cell fluorescence microscopy of HL647-Aβ42 cellular interaction; type: cell-based, human; details: 1 μM HL647-Aβ42, absence of 2AT and KLT, 16 h
# Description: Fig. 7. The effects of 2AT and KLT on Aβ42 toxicity and cellular interaction (A–D). (A) LDH release assay (B) CellTiter-Glo ATP assay. (C) ApoLive-Glo cell viability assay. (D) ApoLive-Glo caspase-3/7 activation assay. The cell-based assays in A–D were performed by exposing SH-SY5Y cells to 6 μM Aβ42 in the presence of a twofold dilution series of 2AT and KLT for 72 h. All data from the assays are shown as the mean of three technical replicates, with error bars representing the SD. (E–I) Live-cell fluorescence micrographs of SH-SY5Y cells after treatment with 1 μM HiLyte™ Fluor 647-Aβ42 (HL647-Aβ42) in the presence of 0 μM trimer (E) or 2 μM and 4 μM 2AT (F and G) or 2 μM and 4 μM KLT (H and I) for 16 h; (Scale bars, 20 μm.) Fluorescence quantification (FQ), as determined by (total fluorescence of HL647Aβ42)/(total number of cells) is indicated on each micrograph. Dead cells were excluded from the fluorescence quantification analysis and are marked with a white “x”. […]
# For these experiments, we exposed SH-SY5Y cells to 1 μM solutions of N-terminally labeled HiLyte™ Fluor 647-Aβ42 (HL647-Aβ42) containing 0 μM, 2 μM, or 4 μM 2AT or KLT and then used live-cell fluorescence microscopy to visualize and quantify HL647-Aβ42 fluorescence on the cells. […]
Substance,concentration that elicits significant toxicity [1],cellular localization / uptake of HL647-Aβ42 [2]
Aβ42: full-length β-amyloid peptide Aβ42,6 µM,–
HL647-Aβ42: N-terminally labeled HiLyte Fluor 647-Aβ42,–,accumulates as punctate features inside the cells
